{
  "source": "ChEMBL document CHEMBL5380860",
  "about": "“Design, Synthesis, and Antitumor Activity of Potent and Selective EGFR L858R/T790M Inhibitors and Identification of a Combination Therapy to Overcome Acquired Resistance in Models of Non-small-cell Lung Cancer” (J Med Chem, 2023)",
  "system": "HCC827",
  "assay": "Inhibition of clonogenicity in human HCC827 cells assessed as inhibition of colony formation incubated for 14 days by crystal violet staining based analysis",
  "type": "functional, cell-based",
  "settings": "dose 0.1-10 µM, time 14.0 day",
  "data": [
    {"smiles": "C=CC(=O)Nc1cccc(Nc2nc(Nc3ccc(N4CCN(C)CC4)cc3)nc3ccc(F)cc23)c1", "values": [
      {"measurement": "inhibition", "value": "Dose-Dependent Effect"}
    ]}
  ]
}
